Results from patent publication US9090576B2, “2-substituted-p-quinone derivatives for treatment of oxidative stress diseases” (Edison Pharmaceuticals, Inc., priority 2008, dated 2015).
Where two headings read alike, the source gives them in different places.

Columns and labels:
Format in all cases: cell-based
[1] = test system: human dermal fibroblasts from LHON patients; experiment: Rescue of BSO-stressed fibroblasts from LHON patients (screen as Example A); settings: Fibroblast, read-out: EC50, protection against LHON
Description: (§1) A culture with FRDA fibroblasts was started from a 1 ml vial with approximately 500,000 cells stored in liquid nitrogen. Cells were propagated in 10 cm cell culture dishes by splitting every third day in a ratio of 1:3 until nine plates were available. Once confluent, fibroblasts were harvested. For 54 micro titer plates (96 well-MTP) a total of 14.3 million cells (passage eight) were re-suspended in 480 ml medium, corresponding to 100 μl medium with 3,000 cells/well. The remaining cells were distributed in 10 cm cell culture plates (500,000 cells/plate) for propagation. The plates were incubated overnight at 37° C. in an atmosphere with 95% humidity and 5% CO2 to allow attachment of the cells to the culture plate.
(§2) MTP medium (243 μl) was added to a well of the microtiter plate. The test compounds were unfrozen, and 7.5 μl of a 5 mM stock solution was dissolved in the well containing 243 μl medium, resulting in a 150 μM master solution. Serial dilutions from the master solution were made. The period between the single dilution steps was kept as short as possible (generally less than 1 second).
(§3) Plates were kept overnight in the cell culture incubator. The next day, 10 μl of a 10 mM BSO solution were added to the wells, resulting in a 1 mM final BSO concentration. Forty-eight hours later, three plates were examined under a phase-contrast microscope to verify that the cells in the 0% control (wells E1-H1) were clearly dead. The medium from all plates was discarded, and the remaining liquid was removed by gently tapping the plate inversed onto a paper towel.
(§4) 100 μl of PBS containing 1.2 μM Calcein AM were then added to each well. The plates were incubated for 50-70 minutes at room temperature. After that time the PBS was discarded, the plate gently tapped on a paper towel and fluorescence (excitation/emission wavelengths of 485 nm and 525 nm, respectively) was read on a Gemini fluorescence reader. Data was imported into Microsoft Excel (EXCEL is a registered trademark of Microsoft Corporation for a spreadsheet program) and used to calculate the EC50 concentration for each compound.
(§5) Compounds of the invention were screened as described in Example A, but substituting FRDA cells with Leber's Hereditary Optic Neuropathy (LHON) cells obtained from the Coriell Cell Repositories (Camden, N.J.; repository number GM03858). The compounds were tested for their ability to rescue human dermal fibroblasts from LHON patients from oxidative stress.

[2] = test system: Human dermal fibroblasts from Friedreich's Ataxia patients; experiment: Rescue of BSO-stressed FRDA fibroblasts (Calcein AM viability); settings: BSO-stressed FRDA fibroblasts (GM04078)
Description: An initial screen was performed to identify compounds effective for the amelioration of redox disorders. Test samples, 4 reference compounds (Idebenone, decylubiquinone, Trolox and α-tocopherol acetate), and solvent controls were tested for their ability to rescue FRDA fibroblasts stressed by addition of L-buthionine-(S,R)-sulfoximine (BSO), as described in Jauslin et al., Hum. Mol. Genet. 11(24):3055 (2002), Jauslin et al., FASEB J. 17:1972-4 (2003), and International Patent Application WO 2004/003565. […] This specific BSO-mediated cell death can be prevented by administration of antioxidants or molecules involved in the antioxidant pathway, such as α-tocopherol, selenium, or small molecule glutathione peroxidase mimetics. However, antioxidants differ in their potency, i.e. the concentration at which they are able to rescue BSO-stressed FRDA fibroblasts.
MEM (a medium enriched in amino acids and vitamins, catalog no. 1-31F24-I) and Medium 199 (M199, catalog no. 1-21F22-I) with Earle's Balanced Salts, without phenol red, were purchased from Bioconcept. Fetal Calf Serum was obtained from PAA Laboratories. Basic fibroblast growth factor and epidermal growth factor were purchased from PeproTech. Penicillin-streptomycin-glutamine mix, L-buthionine (S,R)-sulfoximine, (+)-α-tocopherol acetate, decylubiquinone, and insulin from bovine pancreas were purchased from Sigma. Trolox (6-hydroxy-2,5,7,8-tetramethylchromane-2-carboxylic acid) was obtained from Fluka. Idebenone was obtained from Chemo Iberica. Calcein AM was purchased from Molecular Probes. Cell culture medium was made by combining 125 ml M199 EBS, 50 ml Fetal Calf Serum, 100 U/ml penicillin, 100 μg/ml streptomycin, 2 mM glutamine, 10 μg/ml insulin, 10 ng/ml EGF, and 10 ng/ml bFGF; MEM EBS was added to make the volume up to 500 ml. A 10 mM BSO solution was prepared by dissolving 444 mg BSO in 200 ml of medium with subsequent filter-sterilization. During the course of the experiments, this solution was stored at +4° C. The cells were obtained from the Coriell Cell Repositories (Camden, N.J.; repository number GM04078) and grown in 10 cm tissue culture plates. Every third day, they were split at a 1:3 ratio.
The test samples were supplied in 1.5 ml glass vials. The compounds were diluted with DMSO, ethanol or PBS to result in a 5 mM stock solution. Once dissolved, they were stored at −20° C. Reference antioxidants (Idebenone, decylubiquinone, α-tocopherol acetate and trolox) were dissolved in DMSO.
Test samples were screened according to the following protocol:
as §1, §2
as §3, with “The medium from all plates was discarded, and the remaining liquid was removed by gently tapping the plate inversed onto a paper towel.” left out

[3] = test system: human dermal fibroblasts from Huntington's patients; experiment: Rescue of BSO-stressed fibroblasts from Huntington's patients (screen as Example A); settings: Fibroblast, read-out: EC50, protection against Huntington's
Description: as §1, §2, §3, §4
as §5, with “tested using the screen” for “screened”, “Huntington's” for “Leber's Hereditary Optic Neuropathy (LHON)”, “GM 04281).” for “GM03858).”, “Huntington's” for “LHON”

[4] = BSO-stressed LHON fibroblasts (GM03858), less than about 150 nM
[5] = less than about 150 nM, read-out: EC50, protection against FRDA
[6] = 1 mM BSO, 48 h, first of three experiments, read-out: EC50 Value 1
[7] = 1 mM BSO, 48 h, second of three experiments, read-out: EC50 Value 2
[8] = 1 mM BSO, 48 h, third of three experiments, read-out: EC50 Value 3
[9] = average of three experiments, read-out: EC50 Average
[10] = BSO-stressed Huntington's fibroblasts (GM 04281), less than about 150 nM

## CC1=C(C)C(=O)C(CCCC(=O)N2CCC(F)CC2)=C(C)C1=O [2-(4-(4-fluoropiperidin-1-yl)-4-oxobutyl)-3,5,6-trimethylcyclohexa-2,5-diene-1,4-dione]
[1]; [4]
  EC50: < 150 nM

## CC1=C(C)C(=O)C(CCNC(=O)N2CCCCC2)=C(C)C1=O [N-(2-(2,4,5-trimethyl-3,6-dioxocyclohexa-1,4-dienyl)ethyl)piperidine-1-carboxamide]
[2]; [5]
  EC50: < 150 nM

## CC1=C(C)C(=O)C(CCCC(=O)N2CCN(C(=O)c3ccccc3)CC2)=C(C)C1=O [2-(4-(4-benzoylpiperazin-1-yl)-4-oxobutyl)-3,5,6-trimethylcyclohexa-2,5-diene-1,4-dione]
[1]; [4]
  EC50: < 150 nM

## CC1=C(C)C(=O)C(CCNC(=O)N2CCC(O)CC2)=C(C)C1=O [4-hydroxy-N-(2-(2,4,5-trimethyl-3,6-dioxocyclohexa-1,4-dienyl)ethyl)piperidine-1-carboxamide]
[1]; [4]
  EC50: < 150 nM

## CC1=C(C)C(=O)C(CCNC(=O)N2CCC(=O)CC2)=C(C)C1=O [4-Oxo-N-(2-(2,4,5-trimethyl-3,6-dioxocyclohexa-1,4-dienyl)ethyl)piperidine-1-carboxamide]
[1]
  EC50: < 150 nM
[3]
  EC50: < 150 nM

## CC1=C(C)C(=O)C(CCCC(=O)N2CCC(F)(F)CC2)=C(C)C1=O [2-(4-(4,4-difluoropiperidin-1-yl)-4-oxobutyl)-3,5,6-trimethylcyclohexa-2,5-diene-1,4-dione]
[1]; [4]
  EC50: < 150 nM

## CC1=C(C)C(=O)C(CCC(C)C(=O)N2CCC(O)CC2)=C(C)C1=O (centres unmarked) [2-(4-(4-hydroxypiperidin-1-yl)-3-methyl-4-oxobutyl)-3,5,6-trimethylcyclohexa-2,5-diene-1,4-dione]
[2]; [5]
  EC50: < 150 nM

## CC(=O)Oc1c(C)c(C)c2c(c1C)CCC(C)(CCC[C@H](C)CCC[C@H](C)CCCC(C)C)O2 (stereo partly drawn) [alpha-Tocopherol acetate, (+)-α-tocopherol acetate, reference compound]
[2]; [6]
  EC50: 400 nM
[2]; [7]
  EC50: 150 nM
[2]; [8]
  EC50: 350 nM
[2]; [9]
  EC50: 300 nM

## CC1=C(C)C(=O)C(CCC(C)C(=O)N2CCC(F)CC2)=C(C)C1=O (centres unmarked) [2-(4-(4-fluoropiperidin-1-yl)-3-methyl-4-oxobutyl)-3,5,6-trimethylcyclohexa-2,5-diene-1,4-dione]
[1]; [4]
  EC50: < 150 nM
[3]; [10]
  EC50: < 150 nM

## CC1=C(C)C(=O)C(CCNC(=O)C(O)c2ccc(Cl)cc2)=C(C)C1=O (centres unmarked) [2-(4-chlorophenyl)-2-hydroxy-N-(2-(2,4,5-trimethyl-3,6-dioxocyclohexa-1,4-dienyl)ethyl)acetamide]
[1]; [4]
  EC50: < 150 nM
[3]; [10]
  EC50: < 150 nM

## CC(=O)N1CCN(C(=O)NCCC2=C(C)C(=O)C(C)=C(C)C2=O)CC1 [4-acetyl-N-(2-(2,4,5-trimethyl-3,6-dioxocyclohexa-1,4-dienyl)ethyl)piperazine-1-carboxamide]
[1]; [4]
  EC50: < 150 nM
[3]; [10]
  EC50: < 150 nM

## CC1=C(C)C(=O)C(CCCC(=O)N2CCN(C(=O)C3CCCCC3)CC2)=C(C)C1=O [2-(4-(4-(cyclohexanecarbonyl)piperazin-1-yl)-4-oxobutyl)-3,5,6-trimethylcyclohexa-2,5-diene-1,4-dione]
[1]; [4]
  EC50: < 150 nM

## CC1=C(C)C(=O)C(CCNC(=O)C(O)c2ccccc2)=C(C)C1=O (centres unmarked) [2-hydroxy-2-phenyl-N-(2-(2,4,5-trimethyl-3,6-dioxocyclohexa-1,4-dienyl)ethyl)acetamide]
[1]; [4]
  EC50: < 150 nM
[2]; [5]
  EC50: < 150 nM

## CC1=C(C)C(=O)C(CCCC(=O)NCCc2ccccn2)=C(C)C1=O [N-(2-(pyridin-2-yl)ethyl)-4-(2,4,5-trimethyl-3,6-dioxocyclohexa-1,4-dienyl)butanamide]
[1]; [4]
  EC50: < 150 nM
[3]; [10]
  EC50: < 150 nM

## COC1=C(OC)C(=O)C(CCCCCCCCCCO)=C(C)C1=O [Idebenone, reference compound]
[2]; [6]
  EC50: 1500 nM
[2]; [7]
  EC50: 1000 nM
[2]; [8]
  EC50: 1000 nM
[2]; [9]
  EC50: 1200 nM

## CCCCCCCCCCC1=C(C)C(=O)C(OC)=C(OC)C1=O [Decylubiquinone, decylubiquinone, reference compound]
[2]; [6]
  EC50: 50 nM
[2]; [7]
  EC50: 35 nM
[2]; [8]
  EC50: 30 nM
[2]; [9]
  EC50: 38 nM

## Cc1c(C)c2c(c(C)c1O)CCC(C)(C(=O)O)O2 (centres unmarked) [Trolox, 6-hydroxy-2,5,7,8-tetramethylchromane-2-carboxylic acid, reference compound]
[2]; [6]
  EC50: 9000 nM
[2]; [7]
  EC50: 9000 nM
[2]; [8]
  EC50: 8000 nM
[2]; [9]
  EC50: 8700 nM

## CCNC(=O)N(C)CCC1=C(C)C(=O)C(C)=C(C)C1=O [3-Ethyl-1-methyl-1-(2-(2,4,5-trimethyl-3,6-dioxocyclohexa-1,4-dienyl)ethyl)urea]
[2]; [5]
  EC50: < 150 nM

## CC1=C(CCNC(=O)C2CCC(F)(F)CC2)C(=O)C(c2ccc(Cl)cc2)=C(C)C1=O [N-(2-(5-(4-chlorophenyl)-2,4-dimethyl-3,6-dioxocyclohexa-1,4-dienyl)ethyl)-4,4-difluorocyclohexanecarboxamide]
[1]; [4]
  EC50: < 150 nM
[2]; [5]
  EC50: < 150 nM

## CC1=C(C)C(=O)C(CCCC(=O)N2CCCC2)=C(C)C1=O [2,3,5-trimethyl-6-(4-oxo-4-(pyrrolidin-1-yl)butyl)cyclohexa-2,5-diene-1,4-dione]
[2]; [5]
  EC50: < 150 nM

## CCCNC(=O)C(C)CCC1=C(C)C(=O)C(C)=C(C)C1=O (centres unmarked) [2-methyl-N-propyl-4-(2,4,5-trimethyl-3,6-dioxocyclohexa-1,4-dienyl)butanamide]
[3]; [10]
  EC50: < 150 nM

## CC1=C(C)C(=O)C(CCNC(=O)c2cccnc2)=C(C)C1=O [N-(2-(2,4,5-trimethyl-3,6-dioxocyclohexa-1,4-dienyl)ethyl)nicotinamide]
[1]; [4]
  EC50: < 150 nM

## CCNC(=O)NCCC1=C(C)C(=O)C(C)=C(c2ccc(Cl)cc2)C1=O [1-(2-(5-(4-chlorophenyl)-2,4-dimethyl-3,6-dioxocyclohexa-1,4-dienyl)ethyl)-3-ethylurea]
[1]; [4]
  EC50: < 150 nM
[2]; [5]
  EC50: < 150 nM

## CC1=C(C)C(=O)C(CCC(C)C(N)=O)=C(C)C1=O (centres unmarked) [2-methyl-4-(2,4,5-trimethyl-3,6-dioxocyclohexa-1,4-dienyl)butanamide]
[1]; [4]
  EC50: < 150 nM
